Patent US8343696B2, “Colored curable composition, fluorine-containing dipyrromethene compound and tautomer thereof, and fluorine-containing dipyrromethene metal complex and tautomer thereof, and color filter using the same and method for producing the color filter” (FUJIFILM Corporation, priority 2008, dated 2013)

Key:
Type in all cases: physicochemical
[1] = Transmittance at 450 nm of the color filter; conditions: negative-working colored resist, 1.0 μm film; transmittance at λmax normalized to 2%
[2] = Heat resistance of coating film (color difference ΔEab before and after heating); conditions: 100° C. for 1 hour on hot plate
How it was run: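 Glass substrate coated with the colored resin composition undercoat was heated on a hot plate at 100 °C for 1 h. Color difference ΔEab before versus after heating measured spectrophotometrically and graded: A <6, B 6–10, C >10.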

[3] = Absorption spectrum in ethyl acetate solution (spectrophotometer UV-2400PC)
How it was run: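 Compounds dissolved in ethyl acetate and scanned on a UV-2400PC spectrophotometer to obtain λmax and molar absorption coefficient (ε). Absorbance at 450 nm reported after normalizing absorbance at λmax to 1.0.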

[4] = Storage stability of colored resist solution (precipitation after one month at room temperature); set-up: key: A: No precipitation was observed; B: Slight precipitation was observed; C: Precipitation was observed; conditions: negative-working colored resist solution, visual precipitation
How it was run: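 The resist solution was mixed with dipyrromethene complex dye Ia-12 to give a negative-working UV-curable colored composition. It was stored for one month at room temperature and precipitation was visually graded: A none, B slight, C observed.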

[5] = Light-fastness of coating film (color difference ΔEab before and after xenon lamp irradiation); conditions: xenon lamp 20,000 luxes for 10 hours (200,000 lux·h)
How it was run: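 Coated glass substrate bearing the colored resin film was exposed to a xenon lamp at 20,000 lux for 10 hours (200,000 lux·h); color difference ΔEab before vs after exposure was measured. Graded A (ΔEab <6), B (6–10), C (>10); lower ΔEab means better light-fastness.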

| Heat resistance [2] | maximum absorption wavelength (λmax) [3] [nm] | molar absorption coefficient (ε) [3] | Abs value at 450 nm when normalized to Abs = 1.0 at λmax [3] | Storage stability [4] | Light-fastness [5] | SMILES | Transmittance at 450 nm [1] |
| --- | --- | --- | --- | --- | --- | --- | --- |
| A (ΔEab value was less than 6) | 563 | 100,500 | 0.0082 | A | A (ΔEab value was less than 6) | CC1CC(C(C)(C)C)C(OC(=O)c2c(-c3ccccc3)c3[n](c2NC(=O)c2ccc(F)c(Br)c2)[Zn-]([OH])[N+]2=C(NC(=O)C(C)Sc4cc(C(=O)O)cc(C(=O)O)c4)C(C#N)=C(c4ccccc4)C2=C3)C(C(C)(C)C)C1 (stereo not drawn) [Ib-53] | A (Transmittance at 450 nm was 90% or more) |
| A (ΔEab value was less than 6) | 558 | 89,100 | 0.0101 | A | A (ΔEab value was less than 6) | CC(=O)NC1=[N+]2C(=Cc3c(-c4ccccc4)c(C(=O)OC4C(C(C)(C)C)CC(C)CC4C(C)(C)C)c(NC(=O)c4cc(F)c(F)c(F)c4)[n]3[Zn-]2[OH])C(c2ccccc2)=C1C#N (stereo not drawn) [Ib-61] | A (Transmittance at 450 nm was 90% or more) |
| A (ΔEab value was less than 6) | 557 | 99,200 | 0.0111 | A | A (ΔEab value was less than 6) | CC1CC(C(C)(C)C)C(OC(=O)c2c(-c3ccccc3)c(C=C3N=C(NC(=O)C(C)(C)C)C(C#N)=C3c3ccccc3)[n]([Zn][OH])c2NC(=O)c2c(F)c(F)c(C(=O)O)c(F)c2F)C(C(C)(C)C)C1 (stereo not drawn) [Ib-69] | A (Transmittance at 450 nm was 90% or more) |

The remaining lines, values behind:

| SMILES | Heat resistance [2] | maximum absorption wavelength (λmax) [3] [nm] | molar absorption coefficient (ε) [3] | Abs value at 450 nm when normalized to Abs = 1.0 at λmax [3] | Storage stability [4] | Light-fastness [5] | Transmittance at 450 nm [1] |
| --- | --- | --- | --- | --- | --- | --- | --- |
| CC1CC(C(C)(C)C)C(OC(=O)c2c(-c3ccccc3)c3[n](c2NC(=O)c2cc(F)ccc2NS(C)(=O)=O)[Zn-]([OH])[N+]2=C(NC(=O)C(C)Sc4cc(C(=O)O)cc(C(=O)O)c4)C(C#N)=C(c4ccccc4)C2=C3)C(C(C)(C)C)C1 (stereo not drawn) [Ib-49] | A (ΔEab value was less than 6) | 566 | 91,500 | 0.0116 | B | A (ΔEab value was less than 6) | A (Transmittance at 450 nm was 90% or more) |
| CC1CC(C(C)(C)C)C(OC(=O)c2c(-c3ccccc3)c(C=C3N=C(NC(=O)CCCSc4cc(C(=O)O)cc(C(=O)O)c4)C(C#N)=C3c3ccccc3)[n]([Zn][OH])c2NC(=O)c2cc(F)cc(F)c2F)C(C(C)(C)C)C1 (stereo not drawn) [Ib-59] | A (ΔEab value was less than 6) | 559 | 93,900 | 0.0083 | A | A (ΔEab value was less than 6) | A (Transmittance at 450 nm was 90% or more) |
| CC1CC(C(C)(C)C)C(OC(=O)c2c(-c3ccccc3)c3[n](c2NC(=O)c2c(F)c(F)c(F)c(F)c2F)[Zn-]([OH])[N+]2=C(NC(=O)C(C)Sc4cc(C(=O)O)cc(C(=O)O)c4)C(C#N)=C(c4ccccc4)C2=C3)C(C(C)(C)C)C1 (stereo not drawn) [Ib-75] | A (ΔEab value was less than 6) | 564 | 106,400 | 0.0099 | A | A (ΔEab value was less than 6) | A (Transmittance at 450 nm was 90% or more) |
